In patent publication US11034699B2, “Ethynyl derivatives” (Hoffmann-La Roche Inc., priority 2015, dated 2021):

Experiments:
human mGlu4 receptor = human mGlu4 receptor (Homo sapiens (Human), UniProt Q14833); assay: Ca2+ mobilization in vitro assay on recombinant human mGlu4 expressed in HEK293 cells (PAM); type: cell-based; conditions: for Emax: HEK293, maximal response in % of maximal stimulatory effect of saturating L-AP4, read-out: Eff. (%); for EC50: HEK293 cells, human mGlu4, L-AP4 at EC20
Chain of human mGlu4 receptor (Q14833 33-912): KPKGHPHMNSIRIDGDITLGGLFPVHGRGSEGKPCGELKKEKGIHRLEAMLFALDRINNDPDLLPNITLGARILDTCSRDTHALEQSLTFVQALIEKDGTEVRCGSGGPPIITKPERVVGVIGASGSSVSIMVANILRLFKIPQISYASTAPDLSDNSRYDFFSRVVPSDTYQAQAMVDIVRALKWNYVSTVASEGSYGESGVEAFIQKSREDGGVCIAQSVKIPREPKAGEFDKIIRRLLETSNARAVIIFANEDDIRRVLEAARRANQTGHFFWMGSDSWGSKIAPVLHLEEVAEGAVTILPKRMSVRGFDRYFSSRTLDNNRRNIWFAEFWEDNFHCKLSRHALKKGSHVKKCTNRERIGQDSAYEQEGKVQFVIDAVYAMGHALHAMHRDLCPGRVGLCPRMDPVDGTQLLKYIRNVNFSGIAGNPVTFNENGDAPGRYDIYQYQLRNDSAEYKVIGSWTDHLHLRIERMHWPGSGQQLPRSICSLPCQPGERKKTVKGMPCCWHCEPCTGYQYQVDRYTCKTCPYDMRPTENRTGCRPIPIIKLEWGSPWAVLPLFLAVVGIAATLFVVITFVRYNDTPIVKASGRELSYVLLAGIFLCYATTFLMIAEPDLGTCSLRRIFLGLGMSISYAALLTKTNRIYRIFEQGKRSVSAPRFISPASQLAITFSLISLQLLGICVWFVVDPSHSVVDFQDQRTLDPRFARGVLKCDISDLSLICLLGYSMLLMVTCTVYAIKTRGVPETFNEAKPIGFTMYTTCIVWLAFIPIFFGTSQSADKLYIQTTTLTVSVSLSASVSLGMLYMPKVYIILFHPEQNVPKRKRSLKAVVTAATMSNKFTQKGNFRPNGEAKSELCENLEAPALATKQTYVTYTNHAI
Description: Determination of EC50 Values Using a Ca2+ Mobilization In Vitro Assay on Recombinant Human mGlu4 Expressed in HEK293 Cells:
A monoclonal HEK-293 cell line stably transfected with a cDNA encoding for the human mGlu4 receptor was generated; for the work with mGlu4 Positive Allosteric Modulators (PAMs), a cell line with low receptor expression levels and low constitutive receptor activity was selected to allow the differentiation of agonistic versus PAM activity. Cells were cultured according to standard protocols (Freshney, 2000) in Dulbecco's Modified Eagle Medium with high glucose supplemented with 1 mM glutamine, 10% (vol/vol) heat-inactivated bovine calf serum, Penicillin/Streptomycin, 50 μg/ml hygromycin and 15 μg/ml blasticidin (all cell culture reagents and antibiotics from Invitrogen, Basel, Switzerland).
About 24 hrs before an experiment, 5×10^4 cells/well were seeded in poly-D-lysine coated, black/clear-bottomed 96-well plates. The cells were loaded with 2.5 μM Fluo-4AM in loading buffer (1×HBSS, 20 mM HEPES) for 1 hr at 37° C. and washed five times with loading buffer. The cells were transferred into a Functional Drug Screening System 7000 (Hamamatsu, Paris, France), and 11 half logarithmic serial dilutions of test compound at 37° C. were added and the cells were incubated for 10-30 min. with on-line recording of fluorescence. Following this pre-incubation step, the agonist (2S)-2-amino-4-phosphonobutanoic acid (L-AP4) was added to the cells at a concentration corresponding to EC20 with on-line recording of fluorescence; in order to account for day-to-day variations in the responsiveness of cells, the EC20 of L-AP4 was determined immediately ahead of each experiment by recording of a full dose-response curve of L-AP4.
Responses were measured as peak increase in fluorescence minus basal (i.e. fluorescence without addition of L-AP4), normalized to the maximal stimulatory effect obtained with saturating concentrations of L-AP4. Graphs were plotted with the % maximal stimulatory using XLfit, a curve fitting program that iteratively plots the data using Levenburg Marquardt algorithm. The single site competition analysis equation used was y=A+((B−A)/(1+((x/C)D))), where y is the % maximal stimulatory effect, A is the minimum y, B is the maximum y, C is the EC50, x is the log 10 of the concentration of the competing compound and D is the slope of the curve (the Hill Coefficient). From these curves the EC50 (drug concentration at which 50% of the maximal receptor activation was achieved), the Hill coefficient as well as the maximal response in % of the maximal stimulatory effect obtained with saturating concentrations of L-AP4 were calculated (see FIG. 1).
A depression of the signal observed after addition of the EC20 concentration of L-AP4 was indicative of an inhibitory activity of the test compound.

rodent = conditions: 6-OHDA rodent model of PD; cited from earlier work
mice [1] = conditions: mice treated with MPTP; cited from earlier work
rats = conditions: cited from earlier work
mice [2] = conditions: cited from earlier work
mice [3] = conditions: cited from earlier work; remark: listed apart in the source

SMILES: CN1C(=O)N(c2c(F)cc(C#Cc3cccnc3)cc2F)C(=O)C[C@]12CCOc1ccccc12 [Example 8, (4S)-3′-[2,6-Difluoro-4-[2-(3-pyridyl)ethynyl]phenyl]-1′-methyl-spiro[chromane-4,6′-hexahydropyrimidine]-2′,4′-dione]
- Emax (human mGlu4 receptor): 145%
- EC50 (human mGlu4 receptor): 88 nM

SMILES: CN1C(=O)N(c2c(F)cc(C#Cc3ccccc3)cc2F)C(=O)C[C@]12CCCc1ncccc12 [Example 5, (5S)-3′-[2,6-Difluoro-4-(2-phenylethynyl)phenyl]-1′-methyl-spiro[7,8-dihydro-6H-quinoline-5,6′-hexahydropyrimidine]-2′,4′-dione]
- Emax (human mGlu4 receptor): 121%
- EC50 (human mGlu4 receptor): 76 nM

SMILES: CN1C(=O)N(c2c(F)cc(C#Cc3ccccc3)cc2F)C(=O)C[C@]12CCc1ncccc12 [Example 4, (5S)-3′-[2,6-Difluoro-4-(2-phenylethynyl)phenyl]-1′-methyl-spiro[6,7-dihydrocyclopenta[b]pyridine-5,6′-hexahydropyrimidine]-2′,4′-dione]
- Emax (human mGlu4 receptor): 115%
- EC50 (human mGlu4 receptor): 94 nM

SMILES: CN1C(=O)N(c2c(F)cc(C#Cc3ccccc3)cc2F)C(=O)C[C@]12CCCc1ccncc12 [Example 1, (8S)-3′-[2,6-Difluoro-4-(2-phenylethynyl)phenyl]-1′-methyl-spiro[6,7-dihydro-5H-isoquinoline-8,6′-hexahydropyrimidine]-2′,4′-dione]
- Emax (human mGlu4 receptor): 101%
- EC50 (human mGlu4 receptor): 58 nM

SMILES: N[C@@H](CCP(=O)(O)O)C(=O)O [L-AP4, (2S)-2-amino-4-phosphonobutanoic acid]
- neuroprotective effects (rodent): neuroprotective effects

SMILES: CN1C(=O)N(c2c(F)cc(C#Cc3ccccc3)cc2F)C(=O)C[C@]12CCCCc1[nH]ncc12 [Example 15, (4S)-3′-[2,6-Difluoro-4-(2-phenylethynyl)phenyl]-1′-methyl-spiro[5,6,7,8-tetrahydro-1H-cyclohepta[c]pyrazole-4,6′-hexahydropyrimidine]-2′,4′-dione]
- Emax (human mGlu4 receptor): 133%
- EC50 (human mGlu4 receptor): 54 nM

SMILES: O=C(Nc1ccccc1)C12CC1/C(=N\O)c1ccccc1O2 (single isomer, unassigned; (-)) [(−)-PHCCC]
- nigrostriatal degeneration (mice [1]): reduced nigrostriatal degeneration

SMILES: CN1C(=O)N(c2c(F)cc(C#Cc3ccccc3)cc2F)C(=O)C[C@]12CCCCc1c2cnn1C [Example 16, (4S)-3′-[2,6-Difluoro-4-(2-phenylethynyl)phenyl]-1,1′-dimethyl-spiro[5,6,7,8-tetrahydrocyclohepta[c]pyrazole-4,6′-hexahydropyrimidine]-2′,4′-dione]
- Emax (human mGlu4 receptor): 137%
- EC50 (human mGlu4 receptor): 34 nM

SMILES: CCN1C(=O)N(c2c(F)cc(C#Cc3ccccc3)cc2F)C(=O)C[C@]12CCCc1ccncc12 [Example 11, (8S)-3′-[2,6-Difluoro-4-(2-phenylethynyl)phenyl]-1′-ethyl-spiro[6,7-dihydro-5H-isoquinoline-8,6′-hexahydropyrimidine]-2′,4′-dione]
- Emax (human mGlu4 receptor): 130%
- EC50 (human mGlu4 receptor): 114 nM

SMILES: CN1C(=O)N(c2c(F)cc(C#Cc3ccccc3)cc2F)C(=O)C[C@]12CCCc1[nH]ncc12 [Example 12, (4S)-3′-[2,6-Difluoro-4-(2-phenylethynyl)phenyl]-1′-methyl-spiro[1,5,6,7-tetrahydroindazole-4,6′-hexahydropyrimidine]-2′,4′-dione]
- Emax (human mGlu4 receptor): 152%
- EC50 (human mGlu4 receptor): 51 nM

SMILES: CN1C(=O)N(c2c(F)cc(C#Cc3cccnc3)cc2F)C(=O)C[C@]12CCCc1ccccc12 [Example 2, (6S)-3-[2,6-Difluoro-4-[2-(3-pyridyl)ethynyl]phenyl]-1-methyl-spiro[hexahydropyrimidine-6,1′-tetralin]-2,4-dione]
- Emax (human mGlu4 receptor): 101%
- EC50 (human mGlu4 receptor): 52 nM

SMILES: CN1C(=O)N(c2c(F)cc(C#Cc3cccnc3)cc2F)C(=O)C[C@]12COCc1ccccc12 [Example 10, (6S)-3-[2,6-Difluoro-4-[2-(3-pyridyl)ethynyl]phenyl]-1-methyl-spiro[hexahydropyrimidine-6,4′-isochromane]-2,4-dione]
- Emax (human mGlu4 receptor): 118%
- EC50 (human mGlu4 receptor): 43 nM

SMILES: CN1C(=O)N(c2c(F)cc(C#Cc3ccccc3)cc2F)C(=O)C[C@]12CCCc1nn(C)cc12 [Example 13, (4S)-3′-[2,6-Difluoro-4-(2-phenylethynyl)phenyl]-1′,2-dimethyl-spiro[6,7-dihydro-5H-indazole-4,6′-hexahydropyrimidine]-2′,4′-dione]
- Emax (human mGlu4 receptor): 165%
- EC50 (human mGlu4 receptor): 39 nM

SMILES: CN1C(=O)N(c2c(F)cc(C#Cc3ccccc3)cc2F)C(=O)C[C@]12CCCc1c2cnn1C [Example 14, (4S)-3′-[2,6-Difluoro-4-(2-phenylethynyl)phenyl]-1,1′-dimethyl-spiro[6,7-dihydro-5H-indazole-4,6′-hexahydropyrimidine]-2′,4′-dione]
- Emax (human mGlu4 receptor): 151%
- EC50 (human mGlu4 receptor): 75 nM

SMILES: CN1C(=O)N(c2c(F)cc(C#Cc3cccnc3)cc2F)C(=O)C[C@]12CCc1ccccc12 [Example 3, (6S)-3-[2,6-Difluoro-4-[2-(3-pyridyl)ethynyl]phenyl]-1-methyl-spiro[hexahydropyrimidine-6,1′-indane]-2,4-dione]
- Emax (human mGlu4 receptor): 94%
- EC50 (human mGlu4 receptor): 61 nM

SMILES: Cc1ccnc(Nc2nc(-c3cn[nH]c3)c(C)s2)n1 [ADX88178]
- profile in the rat EPM test (rats; rat, after oral dosing): anxiolytic-like profile
- activity in EPM (rats; rats): active
- activity in marble burying test (mice [2]): active
- activity in EPM (mice [3]): active

SMILES: CN1C(=O)N(c2c(F)cc(C#Cc3ccccc3)cc2F)C(=O)C[C@]12CCOc1ncccc12 [Example 9, (4S)-3′-[2,6-Difluoro-4-(2-phenylethynyl)phenyl]-1′-methyl-spiro[2,3-dihydropyrano[2,3-b]pyridine-4,6′-hexahydropyrimidine]-2′,4′-dione]
- Emax (human mGlu4 receptor): 124%
- EC50 (human mGlu4 receptor): 51 nM

SMILES: CN1C(=O)N(c2c(F)cc(C#Cc3ccccc3)cc2F)C(=O)C[C@]12CCCc1ncncc12 [Example 7, (5S)-3′-[2,6-Difluoro-4-(2-phenylethynyl)phenyl]-1′-methyl-spiro[7,8-dihydro-6H-quinazoline-5,6′-hexahydropyrimidine]-2′,4′-dione]
- Emax (human mGlu4 receptor): 115%
- EC50 (human mGlu4 receptor): 65 nM

SMILES: CN1C(=O)N(c2c(F)cc(C#Cc3ccccc3)cc2F)C(=O)C[C@]12CCCc1cnccc12 [Example 6, (5S)-3′-[2,6-Difluoro-4-(2-phenylethynyl)phenyl]-1′-methyl-spiro[7,8-dihydro-6H-isoquinoline-5,6′-hexahydropyrimidine]-2′,4′-dione]
- Emax (human mGlu4 receptor): 115%
- EC50 (human mGlu4 receptor): 65 nM

SMILES: CN1C(=O)N(c2c(F)cc(C#Cc3ccccc3)cc2F)C(=O)C[C@]12CCCCc1nn(C)cc12 [Example 17, (4S)-3′-[2,6-Difluoro-4-(2-phenylethynyl)phenyl]-1′,2-dimethyl-spiro[5,6,7,8-tetrahydrocyclohepta[c]pyrazole-4,6′-hexahydropyrimidine]-2′,4′-dione]
- Emax (human mGlu4 receptor): 131%
- EC50 (human mGlu4 receptor): 39 nM
